Key:
Type in all cases: in vivo
[1] = blind tasting of chocolate chip cookies baked with sugar substitutes, with and without sodium gluconate; details: ½ tsp of sodium gluconate for every cup of erythritol; 5 people, blind sampled
From the text: The level of sodium gluconate on bitterness reduction in baked goods was investigated. Using a commercially available recipe of chocolate chip cookies, a batch of cookies were baked and blind sampled. The batches were baked using the recipe (i) 2 sticks unsalted butter, at room temperature; (ii) 1 cup erythritol or 1 cup monk fruit sugar substitute or ½ cup stevia sugar substitute; (iii) for samples with sodium gluconate, ½ tsp of sodium gluconate was used for every cup of erythritol; (iv) 1¼ egg; (v) 1⅓ cup almond flour; (vi) 2 tsp vanilla extract; (vii) 1¼ tsp sea salt; (viii) ½ tsp baking powder; (ix) ¼ tsp baking soda; and (x) 1 bag Lily's Sweets Semi-Sweet Chocolate Chips or Milk Chocolate Baking Chips. […] Five (5) people were brought in to compare batches with and without sodium gluconate.

[2] = blind taste panel: which coffee tasted less bitter; details: Coffee 2 = 0.5 grams of sodium gluconate added to a 200 g coffee; blind study, panel of 8 individuals; FIG. 1
Method: The ability of a BMA to reduce the bitterness of a coffee product was investigated. Specifically, varying amounts of a BMA according to aspects described herein was added to coffee samples. In a blind study, a panel of 8 individuals were asked to determine which coffee tasted less bitter. […] Coffee 2 had 0.5 grams of sodium gluconate added to a 200 g coffee.
In a blind study, a panel of 8 individuals were asked to determine which coffee tasted less bitter. […] Coffee 2 had 0.5 grams of sodium gluconate added to a 200 g coffee.

[3] = trained-panel taste test of caffeine solutions with and without sodium gluconate (dose response)
Method: The effect of sodium gluconate on bitterness as a dose response was investigated, In a blind study, six (6) trained panelists conducted a taste test with caffeine samples. […] Caffeine solutions with and without sodium gluconate were prepared on a w/v basis with deionized water. Products were dispensed into lidded soufflé cups with 3-digit codes and evaluated at 21° C. Products were evaluated in duplicate by 6 trained panelists for bitter taste amelioration following the study by Leksrisompong et al. (2012).

SMILES: O=C([O-])[C@H](O)[C@@H](O)[C@H](O)[C@H](O)CO.[Na+] [sodium gluconate]
- participants' preference between cookie batches with and without sodium gluconate [1]: All 5 participants preferred
- coffee sample chosen by the panel as less bitter [2]: less bitter, smoother taste
- bitterness reduction of caffeine samples ([3]; caffeine solutions w/v in deionized water, 21° C., 6 trained panelists in duplicate, 0 to 15 point Spectrum intensity scale, FIG. 2): significant bitterness reduction
- nature of bitterness reduction as a function of masking agent dose ([3]; percent bitterness vs masking agent dose, FIG. 3): linear

Reference: patent US20240065303A1, “BITTER MASKING AGENT” (SOLUGEN, INC., priority 2020, published 2024)
